In US12145948B2, “Compounds and methods for modulating HER2” (IAMBIC THERAPEUTICS, INC., priority 2022, dated 2024):

Key:
[1] = target: T1, ERBB2-A775_G776insYVMA (ERBB2YVMA) (Homo sapiens, UniProt P04626, INS775YVMA); experiment: HotSpot radiometric kinase activity assay, ERBB2YVMA; settings: biochemical activity, read-out: HER2-YVMA IC50
T1 construct: purchased SignalChem E27-13BG
Experimental: The purpose of the wtERBB2, ERBB2-A775_G776insYVMA (ERBB2YVMA), wtEGFR biochemical assay was to evaluate the inhibition (% inhibition and IC50 values) of the small molecule inhibitors by using the “HotSpot” radiometric kinase activity assay. HotSpot assays monitor the […] of kinase substrate by the radioactive gamma phosphate of adenosine triphosphate (33P-ATP) during biochemical reactions. HotSpot assays was performed in steps upon completion of the kinase reaction: deposition of a reaction mixture aliquot onto P81 ion exchange paper, extensive washing of the aforementioned P81 paper using phosphoric acid to remove unbound radiolabeled 33P-ATP from the P81 paper, and finally visualization and quantification of the dried P81 paper utilizing a phosphoimager. […] Typical reaction solutions (10 μL final reaction volume) contained the following buffer conditions: 20 mM Hepes (pH 7.5), 10 mM MgCl2, 1 mM EGTA, 0.01% Brij35, 0.02 mg/mL BSA, 0.1 mM Na3VO4, 2 mM DTT, 1% DMSO. The assay was primed by preparing a fresh 0.2 mg/mL solution of pEY (Sigma Cat: P7244) substrate in the reaction buffer and supplementing that solution with […] of MnCl2 as substrate cofactor (Sigma Cat: M9522). The kinase of interest was then added to the solution at the appropriate concentration (30 nM wtERBB2 from, or 20 nM ERBB2YVMA, or 4 nM wtEGFR) and gently mixed prior to delivery of compound in 100% DMSO by acoustic dispensing (Beckman Echo550). Compound, Kinase, and substrate were allowed to incubate for 20 min at room temperature prior to the initiation of the reaction by addition of 33P-ATP (PerkinElmer Cat: NEG602, final conc 10 μM). […] IC50 determinations were made from a plot of kinase activity as a function of inhibitor concentration fit to the 4-parameter IC50 equation with the enzyme concentration held constant using GraphPad Prism (San Diego).

BaF3_HER2WT cells = BaF3_HER2WT cells (Homo sapiens, UniProt P04626); experiment: Cell growth inhibition assay (CellTiterGlo, 3 days), BaF3_HER2WT; type: cell-based; settings: read-out: HER2 WT IC50
Chain of BaF3_HER2WT cells (P04626 whole entry, change not shown): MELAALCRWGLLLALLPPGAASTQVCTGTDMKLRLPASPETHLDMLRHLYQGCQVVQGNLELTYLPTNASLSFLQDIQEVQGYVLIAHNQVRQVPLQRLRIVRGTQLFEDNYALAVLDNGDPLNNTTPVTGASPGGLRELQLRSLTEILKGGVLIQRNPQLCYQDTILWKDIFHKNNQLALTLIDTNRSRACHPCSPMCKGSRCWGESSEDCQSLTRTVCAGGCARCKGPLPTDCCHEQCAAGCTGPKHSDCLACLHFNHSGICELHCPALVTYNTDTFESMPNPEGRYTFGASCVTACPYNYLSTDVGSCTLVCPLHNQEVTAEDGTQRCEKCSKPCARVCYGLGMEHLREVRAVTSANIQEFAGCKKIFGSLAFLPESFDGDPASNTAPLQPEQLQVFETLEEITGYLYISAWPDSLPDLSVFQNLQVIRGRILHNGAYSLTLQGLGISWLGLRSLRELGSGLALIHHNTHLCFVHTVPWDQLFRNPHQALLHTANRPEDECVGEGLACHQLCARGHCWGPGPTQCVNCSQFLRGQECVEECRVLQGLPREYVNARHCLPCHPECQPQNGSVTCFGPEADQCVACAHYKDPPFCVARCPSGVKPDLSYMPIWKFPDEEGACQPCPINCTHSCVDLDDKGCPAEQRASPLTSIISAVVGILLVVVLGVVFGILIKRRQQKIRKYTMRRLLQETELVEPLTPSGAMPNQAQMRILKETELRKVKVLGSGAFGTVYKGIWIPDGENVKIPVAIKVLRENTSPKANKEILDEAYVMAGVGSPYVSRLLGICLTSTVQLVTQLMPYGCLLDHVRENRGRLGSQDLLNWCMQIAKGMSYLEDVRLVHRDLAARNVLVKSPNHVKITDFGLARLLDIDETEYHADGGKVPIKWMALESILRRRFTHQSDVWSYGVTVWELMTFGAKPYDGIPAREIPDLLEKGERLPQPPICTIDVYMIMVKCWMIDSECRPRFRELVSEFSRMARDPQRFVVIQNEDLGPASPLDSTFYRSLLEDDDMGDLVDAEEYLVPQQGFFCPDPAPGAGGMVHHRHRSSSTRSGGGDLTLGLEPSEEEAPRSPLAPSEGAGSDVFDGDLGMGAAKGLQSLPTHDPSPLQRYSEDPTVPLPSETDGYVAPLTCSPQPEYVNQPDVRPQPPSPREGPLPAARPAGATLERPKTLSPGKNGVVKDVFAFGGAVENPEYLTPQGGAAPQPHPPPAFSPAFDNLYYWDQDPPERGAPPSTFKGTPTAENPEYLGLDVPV

BaF3-HER2YVMA cells = BaF3-HER2YVMA cells (Homo sapiens, UniProt P04626, DUP772-775, cells depend on it); experiment: Cell growth inhibition assay (CellTiterGlo, 3 days), BaF3-HER2YVMA; type: cell-based; settings: BaF3_HER2YVMA cells, read-out: HER2-YVMA IC50
Chain of BaF3-HER2YVMA cells (P04626 with tags, fused parts or gaps DUP772-775): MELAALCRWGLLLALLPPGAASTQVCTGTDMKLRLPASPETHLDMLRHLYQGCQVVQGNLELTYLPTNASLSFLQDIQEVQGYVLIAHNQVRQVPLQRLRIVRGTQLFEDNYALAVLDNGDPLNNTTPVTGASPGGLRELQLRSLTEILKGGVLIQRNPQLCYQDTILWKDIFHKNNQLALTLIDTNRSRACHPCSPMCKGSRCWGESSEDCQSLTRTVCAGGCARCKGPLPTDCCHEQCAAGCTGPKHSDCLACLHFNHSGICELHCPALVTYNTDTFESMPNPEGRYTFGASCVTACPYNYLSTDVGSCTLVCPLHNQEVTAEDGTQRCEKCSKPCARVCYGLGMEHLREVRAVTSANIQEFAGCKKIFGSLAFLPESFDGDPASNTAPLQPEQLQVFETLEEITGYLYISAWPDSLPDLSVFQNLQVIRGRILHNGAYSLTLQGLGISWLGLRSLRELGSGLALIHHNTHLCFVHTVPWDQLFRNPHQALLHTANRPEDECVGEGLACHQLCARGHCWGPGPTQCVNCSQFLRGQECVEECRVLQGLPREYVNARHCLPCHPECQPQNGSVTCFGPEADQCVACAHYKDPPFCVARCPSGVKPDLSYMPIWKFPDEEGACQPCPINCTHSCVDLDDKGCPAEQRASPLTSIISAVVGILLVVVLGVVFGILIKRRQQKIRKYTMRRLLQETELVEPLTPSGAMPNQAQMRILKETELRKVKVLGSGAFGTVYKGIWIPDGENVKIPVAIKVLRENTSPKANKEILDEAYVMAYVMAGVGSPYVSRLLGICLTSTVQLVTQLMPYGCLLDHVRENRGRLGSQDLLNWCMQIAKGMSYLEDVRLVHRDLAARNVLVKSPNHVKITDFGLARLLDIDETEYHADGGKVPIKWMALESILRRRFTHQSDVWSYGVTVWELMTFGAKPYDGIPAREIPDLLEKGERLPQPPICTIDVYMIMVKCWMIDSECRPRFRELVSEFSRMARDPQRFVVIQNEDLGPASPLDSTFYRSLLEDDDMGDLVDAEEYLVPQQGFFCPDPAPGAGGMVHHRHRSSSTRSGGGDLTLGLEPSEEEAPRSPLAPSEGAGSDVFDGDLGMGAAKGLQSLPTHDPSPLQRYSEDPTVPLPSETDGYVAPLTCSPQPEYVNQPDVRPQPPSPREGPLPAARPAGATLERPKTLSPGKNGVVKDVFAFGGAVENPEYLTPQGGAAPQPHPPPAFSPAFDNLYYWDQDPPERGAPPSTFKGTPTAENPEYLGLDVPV

BaF3_EGFRWT cells = BaF3_EGFRWT cells (Homo sapiens, UniProt P00533); experiment: Cell growth inhibition assay (CellTiterGlo, 3 days), BaF3_EGFRWT; type: cell-based; settings: read-out: EGFR WT IC50
Chain of BaF3_EGFRWT cells (P00533 whole entry, change not shown): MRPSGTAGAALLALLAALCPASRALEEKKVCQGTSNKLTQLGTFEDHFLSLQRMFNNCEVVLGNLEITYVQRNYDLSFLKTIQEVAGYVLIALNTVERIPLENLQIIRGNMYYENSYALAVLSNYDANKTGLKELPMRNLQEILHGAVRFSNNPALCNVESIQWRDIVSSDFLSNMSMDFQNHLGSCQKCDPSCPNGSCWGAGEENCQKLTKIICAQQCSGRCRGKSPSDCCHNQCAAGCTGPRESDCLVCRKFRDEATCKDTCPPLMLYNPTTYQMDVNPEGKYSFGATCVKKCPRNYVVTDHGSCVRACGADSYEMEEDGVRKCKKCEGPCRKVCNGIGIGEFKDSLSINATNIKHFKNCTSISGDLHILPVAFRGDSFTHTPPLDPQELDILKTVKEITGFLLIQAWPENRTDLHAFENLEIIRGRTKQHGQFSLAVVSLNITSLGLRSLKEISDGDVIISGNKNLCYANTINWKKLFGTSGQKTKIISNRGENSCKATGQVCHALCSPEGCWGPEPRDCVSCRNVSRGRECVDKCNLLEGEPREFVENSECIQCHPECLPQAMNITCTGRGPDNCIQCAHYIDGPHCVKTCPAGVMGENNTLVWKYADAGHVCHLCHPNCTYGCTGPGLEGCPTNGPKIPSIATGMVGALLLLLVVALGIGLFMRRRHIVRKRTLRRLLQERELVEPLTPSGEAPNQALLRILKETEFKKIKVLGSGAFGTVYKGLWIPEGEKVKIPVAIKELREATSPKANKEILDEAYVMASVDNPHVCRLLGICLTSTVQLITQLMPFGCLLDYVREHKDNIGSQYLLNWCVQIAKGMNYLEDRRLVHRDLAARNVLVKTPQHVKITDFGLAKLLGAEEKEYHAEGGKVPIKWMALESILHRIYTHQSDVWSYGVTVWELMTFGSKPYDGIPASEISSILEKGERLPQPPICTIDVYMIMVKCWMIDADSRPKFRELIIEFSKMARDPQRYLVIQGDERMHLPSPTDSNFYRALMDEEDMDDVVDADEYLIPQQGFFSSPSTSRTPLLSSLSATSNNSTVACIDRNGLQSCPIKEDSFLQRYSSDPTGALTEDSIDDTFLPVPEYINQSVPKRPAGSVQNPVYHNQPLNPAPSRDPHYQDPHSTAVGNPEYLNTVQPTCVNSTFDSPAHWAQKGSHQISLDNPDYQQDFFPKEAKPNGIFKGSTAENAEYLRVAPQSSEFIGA

T1 sequence (P04626 with tags, fused parts or gaps INS775YVMA limits assumed): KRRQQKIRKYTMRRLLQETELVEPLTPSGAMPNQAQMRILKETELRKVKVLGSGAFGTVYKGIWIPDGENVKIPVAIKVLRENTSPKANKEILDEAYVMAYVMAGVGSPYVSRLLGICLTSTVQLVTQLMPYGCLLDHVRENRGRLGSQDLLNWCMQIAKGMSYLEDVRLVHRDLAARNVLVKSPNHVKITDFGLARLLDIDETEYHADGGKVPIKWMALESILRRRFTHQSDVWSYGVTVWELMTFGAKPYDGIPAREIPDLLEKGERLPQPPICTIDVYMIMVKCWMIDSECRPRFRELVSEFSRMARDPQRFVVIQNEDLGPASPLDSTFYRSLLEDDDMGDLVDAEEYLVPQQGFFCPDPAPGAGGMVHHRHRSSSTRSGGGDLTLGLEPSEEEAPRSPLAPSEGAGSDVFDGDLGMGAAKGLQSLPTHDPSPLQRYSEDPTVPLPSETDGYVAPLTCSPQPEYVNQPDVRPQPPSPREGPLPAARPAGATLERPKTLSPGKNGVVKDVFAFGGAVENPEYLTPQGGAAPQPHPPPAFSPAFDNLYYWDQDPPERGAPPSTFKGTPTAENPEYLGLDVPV

| IC50 [1] | GI50 (BaF3_HER2WT cells) | GI50 (BaF3-HER2YVMA cells) | GI50 (BaF3_EGFRWT cells) | Structure (SMILES) |
| --- | --- | --- | --- | --- |
| < 200 nM | – | – | – | Cc1cc(Nc2ncnn3ccc([C@H]4CCN(C(=O)/C=C/CN(C)C)C4)c23)ccc1Oc1ccn2ncnc2c1 (single isomer, unassigned) [Example 100] |
| < 200 nM | – | – | – | Cc1cc(Nc2ncnn3ccc([C@H]4CCCN(C(=O)/C=C/CN(C)C)C4)c23)ccc1Oc1ccn2ncnc2c1 (single isomer, unassigned) [Example 108] |
| < 200 nM | – | – | – | Cc1cc(Nc2ncnn3ccc([C@H]4CCCN(C(=O)/C=C/CN(C)C)CC4)c23)ccc1Oc1ccn2ncnc2c1 (single isomer, unassigned) [Example 110] |
| – | < 200 nM | < 200 nM | 1500 to 5000 nM | Cc1cc(Nc2ncnn3ccc(C4CCN(C(=O)[C@@H](F)Cl)CC4)c23)ccc1Oc1ccn2ncnc2c1 (single isomer, unassigned) [second eluting isomer of Examples 173 and 174] |
| – | < 200 nM | – | – | Cc1cc(Nc2ncnn3ccc(C4CC5CCC4CN5C(=O)/C=C/CN(C)C)c23)ccc1Oc1ccn2ncnc2c1 (single isomer, unassigned; first eluting) [first eluting isomer of Examples 137 and 138] |
| – | < 200 nM | < 200 nM | 1500 to 5000 nM | C=C(CN(C)C)C(=O)N1C2C=C(c3ccn4ncnc(Nc5ccc(Oc6ccn7ncnc7c6)c(C)c5)c34)CC1CC2 (stereo not shown) [Example 30, 1-(3-(4-((4-([1,2,4]triazolo[1,5-a]pyridin-7-yloxy)-3-methylphenyl)amino)pyrrolo[2,1-f][1,2,4]triazin-5-yl)-8-azabicyclo[3.2.1]oct-2-en-8-yl)-2-((dimethylamino)methyl) prop-2-en-1-one acetate] |
